Results on 31 compounds are retold here after patent publication US12441703B2, “Carboxamides as modulators of sodium channels” (VERTEX PHARMACEUTICALS INCORPORATED, priority 2019, dated 2025).

For orientation: IC50 means the concentration at which inhibition is half-maximal.

Where only a bound is given, the exact number is not on record here.

In this experiment the target is human NaV 1.8 (Homo sapiens, UniProt Q9Y5Y9). In words: E-VIPR assay for detecting and measuring NaV inhibition properties. Particulars: E-VIPR assay conducted in the presence of human serum; HEK cells expressing truncated human NaV 1.8; read-out: IC50. The experiment is classed as cell-based. In outline: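 Membrane-potential (coumarin/oxonol) readout after 10 s of 10 Hz biphasic electrical stimulation on E-VIPR. Compounds: 11-point 3-fold dilutions, […], 0.625% DMSO, 30 min at room temperature, human serum optional. Cells: HEK expressing truncated human NaV1.8 co-transduced with KIR2.1.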
human NaV 1.8, sequence (Q9Y5Y9 whole entry, looked up, the tested form may be a part): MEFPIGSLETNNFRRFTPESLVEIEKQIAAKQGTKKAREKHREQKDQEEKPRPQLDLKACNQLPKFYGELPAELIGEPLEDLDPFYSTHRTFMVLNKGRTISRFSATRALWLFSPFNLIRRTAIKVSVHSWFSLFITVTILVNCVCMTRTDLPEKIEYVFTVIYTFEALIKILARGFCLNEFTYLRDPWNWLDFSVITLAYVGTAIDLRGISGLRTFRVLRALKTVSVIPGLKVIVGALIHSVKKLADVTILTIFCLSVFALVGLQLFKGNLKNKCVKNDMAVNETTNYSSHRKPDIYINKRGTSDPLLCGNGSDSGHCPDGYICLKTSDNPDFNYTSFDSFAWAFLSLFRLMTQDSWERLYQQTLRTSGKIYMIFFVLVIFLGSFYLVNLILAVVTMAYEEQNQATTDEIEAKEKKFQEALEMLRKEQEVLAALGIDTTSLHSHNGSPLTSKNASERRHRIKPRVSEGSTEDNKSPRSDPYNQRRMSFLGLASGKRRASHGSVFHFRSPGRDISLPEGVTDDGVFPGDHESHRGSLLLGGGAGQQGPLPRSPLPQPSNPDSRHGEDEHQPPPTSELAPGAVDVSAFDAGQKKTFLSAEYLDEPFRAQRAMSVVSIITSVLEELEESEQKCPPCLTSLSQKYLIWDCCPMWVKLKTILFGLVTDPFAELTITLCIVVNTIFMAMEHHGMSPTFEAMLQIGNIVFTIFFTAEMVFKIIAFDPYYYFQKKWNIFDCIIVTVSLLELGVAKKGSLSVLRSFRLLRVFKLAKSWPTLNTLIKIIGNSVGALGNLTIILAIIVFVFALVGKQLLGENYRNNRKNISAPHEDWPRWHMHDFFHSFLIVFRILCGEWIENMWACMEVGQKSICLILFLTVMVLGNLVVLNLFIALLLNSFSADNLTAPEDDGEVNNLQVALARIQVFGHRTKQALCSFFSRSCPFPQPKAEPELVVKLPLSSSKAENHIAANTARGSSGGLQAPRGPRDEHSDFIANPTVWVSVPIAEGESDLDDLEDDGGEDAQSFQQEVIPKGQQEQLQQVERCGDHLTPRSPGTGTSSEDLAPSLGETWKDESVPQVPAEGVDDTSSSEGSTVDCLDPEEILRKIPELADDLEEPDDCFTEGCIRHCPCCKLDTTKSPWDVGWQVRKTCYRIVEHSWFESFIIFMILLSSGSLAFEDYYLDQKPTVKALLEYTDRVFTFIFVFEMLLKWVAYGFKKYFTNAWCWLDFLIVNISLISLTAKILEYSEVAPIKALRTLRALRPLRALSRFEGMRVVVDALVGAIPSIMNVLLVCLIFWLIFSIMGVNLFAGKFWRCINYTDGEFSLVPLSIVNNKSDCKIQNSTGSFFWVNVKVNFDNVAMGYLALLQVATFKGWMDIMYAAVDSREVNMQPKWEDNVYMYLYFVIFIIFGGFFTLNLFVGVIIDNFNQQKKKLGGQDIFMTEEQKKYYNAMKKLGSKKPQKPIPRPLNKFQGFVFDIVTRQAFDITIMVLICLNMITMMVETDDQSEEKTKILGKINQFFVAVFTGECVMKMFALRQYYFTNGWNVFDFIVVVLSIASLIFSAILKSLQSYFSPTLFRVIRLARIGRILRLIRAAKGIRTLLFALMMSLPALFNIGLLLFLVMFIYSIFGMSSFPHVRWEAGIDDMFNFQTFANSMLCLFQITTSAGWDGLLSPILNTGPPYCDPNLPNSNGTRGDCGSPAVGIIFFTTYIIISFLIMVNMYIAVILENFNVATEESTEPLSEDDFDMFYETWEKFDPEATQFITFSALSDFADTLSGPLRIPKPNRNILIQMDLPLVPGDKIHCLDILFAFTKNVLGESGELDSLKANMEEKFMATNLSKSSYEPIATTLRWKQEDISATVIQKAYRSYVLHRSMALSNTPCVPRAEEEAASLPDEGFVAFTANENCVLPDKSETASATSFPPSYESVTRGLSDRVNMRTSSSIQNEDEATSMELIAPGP
Regarding `NC(=O)c1ccc(NC(=O)c2c(Oc3ccc(F)c(F)c3F)ccc(C(F)(F)F)c2F)cn1` [Compound 215, 5-[[2-fluoro-3-(trifluoromethyl)-6-(2,3,4-trifluorophenoxy)benzoyl]amino]pyridine-2-carboxamide], the half-maximal inhibitory concentration (IC50) was determined as 570 nM.
The same measure for `NC(=O)c1ccc(NC(=O)c2c(Oc3ccc(OC(F)(F)F)c(F)c3)ccc(C(F)(F)F)c2F)cn1` [Compound 216, 5-[[2-fluoro-6-[3-fluoro-4-(trifluoromethoxy)phenoxy]-3-(trifluoromethyl)benzoyl]amino]pyridine-2-carboxamide]: 340 nM; for `NC(=O)c1ccc(NC(=O)c2c(Oc3ccc(OC(F)(F)F)c(Cl)c3)ccc(C(F)(F)F)c2F)cn1` [Compound 217, 5-[[6-[3-chloro-4-(trifluoromethoxy)phenoxy]-2-fluoro-3-(trifluoromethyl)benzoyl]amino]pyridine-2-carboxamide]: 160 nM; for `Cc1cc(Cl)ccc1Oc1ccc(C(F)(F)F)c(F)c1C(=O)Nc1ccc(C(N)=O)nc1` [Compound 218, 5-[[6-(4-chloro-2-methyl-phenoxy)-2-fluoro-3-(trifluoromethyl)benzoyl]amino]pyridine-2-carboxamide]: 735 nM.
The same measure for `NC(=O)c1ccc(NC(=O)c2c(Oc3ccc(Cl)cc3F)ccc(C(F)(F)F)c2F)cn1` [Compound 219, 5-[[6-(4-chloro-2-fluoro-phenoxy)-2-fluoro-3-(trifluoromethyl)benzoyl]amino]pyridine-2-carboxamide]: 1500 nM.
Regarding `COc1cc(Cl)ccc1Oc1ccc(C(F)(F)F)c(F)c1C(=O)Nc1ccc(C(N)=O)nc1` [Compound 220, 5-[[6-(4-chloro-2-methoxy-phenoxy)-2-fluoro-3-(trifluoromethyl)benzoyl]amino]pyridine-2-carboxamide], the IC50 came out at 530 nM.
With `NC(=O)c1ccc(NC(=O)c2c(Oc3ccc(OC(F)(F)F)cc3F)ccc(C(F)(F)F)c2F)cn1` [Compound 221, 5-[[2-fluoro-6-[2-fluoro-4-(trifluoromethoxy)phenoxy]-3-(trifluoromethyl)benzoyl]amino]pyridine-2-carboxamide], the concentration for half-maximal inhibition (IC50) worked out at 430 nM.
As to `Cc1cc(OC(F)(F)F)ccc1Oc1ccc(C(F)(F)F)c(F)c1C(=O)Nc1ccc(C(N)=O)nc1` [Compound 222, 5-[[2-fluoro-6-[2-methyl-4-(trifluoromethoxy)phenoxy]-3-(trifluoromethyl)benzoyl]amino]pyridine-2-carboxamide], the IC50 turned out to be 120 nM.
With `NC(=O)c1ccc(NC(=O)c2c(Oc3ccc(OC(F)(F)F)cc3Cl)ccc(C(F)(F)F)c2F)cn1` [Compound 223, 5-[[6-[2-chloro-4-(trifluoromethoxy)phenoxy]-2-fluoro-3-(trifluoromethyl)benzoyl]amino]pyridine-2-carboxamide], the half-inhibitory concentration (IC50) worked out at 130 nM.
To `COc1c(Oc2ccc(C(F)(F)F)c(C)c2C(=O)Nc2ccc(C(N)=O)nc2)ccc(OC(F)(F)F)c1F` [Compound 224, 5-[[6-[3-fluoro-2-methoxy-4-(trifluoromethoxy)phenoxy]-2-methyl-3-(trifluoromethyl)benzoyl]amino]pyridine-2-carboxamide] belongs 6 nM; to `Cc1c(C(F)(F)F)ccc(Oc2ccc(F)c(F)c2F)c1C(=O)Nc1ccc(C(N)=O)nc1` [Compound 225, 5-[[2-methyl-3-(trifluoromethyl)-6-(2,3,4-trifluorophenoxy)benzoyl]amino]pyridine-2-carboxamide], 1500 nM.
On to `Cc1c(C(F)(F)F)ccc(Oc2ccc(OC(F)(F)F)cc2C2CC2)c1C(=O)Nc1ccc(C(N)=O)nc1` [Compound 226, 5-[[6-[2-cyclopropyl-4-(trifluoromethoxy)phenoxy]-2-methyl-3-(trifluoromethyl)benzoyl]amino]pyridine-2-carboxamide], for which the IC50 came to 140 nM.
For the compound `Cc1c(Oc2ccc(C(F)(F)F)c(C)c2C(=O)Nc2ccc(C(N)=O)nc2)ccc(F)c1F` [Compound 227, 5-[[6-(3,4-difluoro-2-methyl-phenoxy)-2-methyl-3-(trifluoromethyl)benzoyl]amino]pyridine-2-carboxamide], the IC50 stood at 610 nM.
To `COc1cc(C)cc(OC)c1Oc1ccc(C(F)(F)F)c(C)c1C(=O)Nc1ccc(C(N)=O)nc1` [Compound 228, 5-[[6-(2,6-dimethoxy-4-methyl-phenoxy)-2-methyl-3-(trifluoromethyl)benzoyl]amino]pyridine-2-carboxamide] belongs greater than 3000 nM.
As to `Cc1cc(Cl)cc(C)c1Oc1ccc(C(F)(F)F)c(C)c1C(=O)Nc1ccc(C(N)=O)nc1` [Compound 229, 5-[[6-(4-chloro-2,6-dimethyl-phenoxy)-2-methyl-3-(trifluoromethyl)benzoyl]amino]pyridine-2-carboxamide], the concentration for half-maximal inhibition (IC50) is greater than 3000 nM.
In the case of `Cc1c(C(F)(F)F)ccc(Oc2c(F)cc(F)cc2F)c1C(=O)Nc1ccc(C(N)=O)nc1` [Compound 230, 5-[[2-methyl-3-(trifluoromethyl)-6-(2,4,6-trifluorophenoxy)benzoyl]amino]pyridine-2-carboxamide], the IC50 was greater than 3000 nM.
For the compound `Cc1c(F)ccc(Oc2ccc(C(F)(F)F)c(C)c2C(=O)Nc2ccc(C(N)=O)nc2)c1C` [Compound 231, 5-[[6-(4-fluoro-2,3-dimethyl-phenoxy)-2-methyl-3-(trifluoromethyl)benzoyl]amino]pyridine-2-carboxamide], the half-inhibitory concentration (IC50) was greater than 3000 nM.
The same measure for `COc1cc(F)ccc1Oc1ccc(C(F)(F)F)c(C)c1C(=O)Nc1ccc(C(N)=O)nc1` [Compound 232, 5-[[6-(4-fluoro-2-methoxy-phenoxy)-2-methyl-3-(trifluoromethyl)benzoyl]amino]pyridine-2-carboxamide]: 1500 nM; for `Cc1cc(Cl)ccc1Oc1ccc(C(F)(F)F)c(C)c1C(=O)Nc1ccc(C(N)=O)nc1` [Compound 233, 5-[[6-(4-chloro-2-methyl-phenoxy)-2-methyl-3-(trifluoromethyl)benzoyl]amino]pyridine-2-carboxamide]: 1400 nM; for `Cc1c(C(F)(F)F)ccc(Oc2ccc(Cl)cc2F)c1C(=O)Nc1ccc(C(N)=O)nc1` [Compound 234, 5-[[6-(4-chloro-2-fluoro-phenoxy)-2-methyl-3-(trifluoromethyl)benzoyl]amino]pyridine-2-carboxamide]: greater than 3000 nM.
To `COc1ccc(Oc2ccc(C(F)(F)F)c(C)c2C(=O)Nc2ccc(C(N)=O)nc2)c(Cl)c1` [Compound 235, 5-[[6-(2-chloro-4-methoxy-phenoxy)-2-methyl-3-(trifluoromethyl)benzoyl]amino]pyridine-2-carboxamide] belongs 1400 nM.
The same measure for `Cc1cc(OC(F)(F)F)ccc1Oc1ccc(C(F)(F)F)c(C)c1C(=O)Nc1ccc(C(N)=O)nc1` [Compound 236, 5-[[2-methyl-6-[2-methyl-4-(trifluoromethoxy)phenoxy]-3-(trifluoromethyl)benzoyl]amino]pyridine-2-carboxamide]: 170 nM.
For `COc1cc(OC(F)(F)F)ccc1Oc1cc(C(C)(C)C)cc(C)c1C(=O)Nc1ccnc(C(N)=O)c1` [Compound 237, 4-[[4-tert-butyl-2-[2-methoxy-4-(trifluoromethoxy)phenoxy]-6-methyl-benzoyl]amino]pyridine-2-carboxamide], the 50% inhibitory concentration (IC50) was determined as 93 nM.
To `COc1cc(OC(F)(F)F)ccc1Oc1cc(C(C)(C)C)cnc1C(=O)Nc1ccnc(C(N)=O)c1` [Compound 238, 5-tert-butyl-N-(2-carbamoyl-4-pyridyl)-3-[2-methoxy-4-(trifluoromethoxy)phenoxy]pyridine-2-carboxamide] belongs 695 nM; to `Cc1c2c(cc(Oc3ccc(OC(F)(F)F)cc3Cl)c1C(=O)Nc1ccnc(C(N)=O)c1)OC(F)(F)O2` [Compound 239, 4-[[6-[2-chloro-4-(trifluoromethoxy)phenoxy]-2,2-difluoro-4-methyl-1,3-benzodioxole-5-carbonyl]amino]pyridine-2-carboxamide], 72 nM; to `Cc1c2c(cc(Oc3ccc(OC(F)(F)F)cc3Cl)c1C(=O)Nc1ccc(C(N)=O)nc1)OC(F)(F)O2` [Compound 240, 5-[[6-[2-chloro-4-(trifluoromethoxy)phenoxy]-2,2-difluoro-4-methyl-1,3-benzodioxole-5-carbonyl]amino]pyridine-2-carboxamide], 570 nM.
`Cc1cc(OC(F)(F)F)cc(Oc2ccc(OC(F)(F)F)cc2Cl)c1C(=O)Nc1ccnc(C(N)=O)c1` [Compound 241, 4-[[2-[2-chloro-4-(trifluoromethoxy)phenoxy]-6-methyl-4-(trifluoromethoxy)benzoyl]amino]pyridine-2-carboxamide]: the half-inhibitory concentration (IC50) turned out to be 190 nM.
With `COc1cc(OC(F)(F)F)ccc1Oc1cc(OC(F)(F)F)cc(C)c1C(=O)Nc1ccnc(C(N)=O)c1` [Compound 242, 4-[[2-[2-methoxy-4-(trifluoromethoxy)phenoxy]-6-methyl-4-(trifluoromethoxy)benzoyl]amino]pyridine-2-carboxamide], the IC50 is 13 nM.
Take `Cc1cc(OC(F)(F)F)cc(Oc2ccc(OC(F)(F)F)cc2Cl)c1C(=O)Nc1ccc(C(N)=O)nc1` [Compound 243, 5-[[2-[2-chloro-4-(trifluoromethoxy)phenoxy]-6-methyl-4-(trifluoromethoxy)benzoyl]amino]pyridine-2-carboxamide]: the half-inhibitory concentration (IC50) was determined as 1850 nM.
The same measure for `COc1cc(OC(F)(F)F)ccc1Oc1ccc(C(F)F)c(C)c1C(=O)Nc1ccnc(C(N)=O)c1` [Compound 244, 4-[[3-(difluoromethyl)-6-[2-methoxy-4-(trifluoromethoxy)phenoxy]-2-methyl-benzoyl]amino]pyridine-2-carboxamide]: 17 nM.
To `COc1cc(OC(F)(F)F)ccc1Oc1cc(OC(F)(F)F)cc(C)c1C(=O)Nc1ccc(C(N)=O)nc1` [Compound 245, 5-[[2-[2-methoxy-4-(trifluoromethoxy)phenoxy]-6-methyl-4-(trifluoromethoxy)benzoyl]amino]pyridine-2-carboxamide] belongs 333 nM.
